The numbers were not newly measured in paper PMC5646416 (Journal of clinical pharmacy and therapeutics, 2017), which cites them from elsewhere.

The conditions of this series: single-dose pharmacokinetic studies.
For the compound `CC[C@H](C)C(=O)O[C@H]1C[C@H](O)C=C2C=C[C@H](C)[C@H](CC[C@@H](O)C[C@@H](O)CC(=O)O)[C@H]21` [pravastatin], the “AUC higher in rs4149056 CC homozygotes than in rs4149056 TT homozygotes” value (shortened to “AUC higher”) is recorded as 57–130%.
Regarding `CC(C)c1nc(N(C)S(C)(=O)=O)nc(-c2ccc(F)cc2)c1/C=C/[C@@H](O)C[C@@H](O)CC(=O)O` [rosuvastatin], the “AUC higher” value was 62–117%.
In the case of `O=C(O)C[C@H](O)C[C@H](O)/C=C/c1c(C2CC2)nc2ccccc2c1-c1ccc(F)cc1` [pitavastatin], the “AUC higher” value is on record as 162–191%.
For the compound `CCC(C)(C)C(=O)O[C@H]1C[C@@H](C)C=C2C=C[C@H](C)[C@H](CC[C@@H](O)C[C@@H](O)CC(=O)O)[C@H]21` [simvastatin acid], the “AUC higher” value is recorded as 221%.
